The text below walks through data of patent publication US6924269B2, “Enzyme inhibitors and methods therefor” (VDF Futureceuticals, Inc., priority 2002, dated 2005).

The target of one assay is T1, COX-1 (Homo sapiens, UniProt P23219).
T1 construct: the source material was human platelets using endogenous arachidonic acid; endogenous in cells; host or cells: human platelets
The experiment in a line: COX-1 enzyme inhibition study (human platelets, endogenous arachidonic acid, EIA of PGE2). It is filed as biochemical. The protocol: COX-1 enzyme inhibition study was performed using a protocol similar to protocols previously described (see e.g., Riendeau D, et al. in Brit. J. Pharmacol. (1997) 121:105-117; or Warner et al. in Proc. Natl. Acad.Sci. (1999) 96:7563-7568). Typically, the source material was human platelets using endogenous arachidonic acid (Vehicle 1% DMSO) at a preincubation time of 15 min at 37 Centigrades and an incubation time of 15 min at 37 Centigrades (Incubation buffer was HBSS buffer with 15mM HEPES pH7.4). Quantitative analysis was performed via EIA determination of PGE2.

Another assay has as its target T2, COX-2 (Homo sapiens, UniProt P35354).
T2 construct: host or cells: Sf9 insect cells
T2 sequence (P35354 18-604): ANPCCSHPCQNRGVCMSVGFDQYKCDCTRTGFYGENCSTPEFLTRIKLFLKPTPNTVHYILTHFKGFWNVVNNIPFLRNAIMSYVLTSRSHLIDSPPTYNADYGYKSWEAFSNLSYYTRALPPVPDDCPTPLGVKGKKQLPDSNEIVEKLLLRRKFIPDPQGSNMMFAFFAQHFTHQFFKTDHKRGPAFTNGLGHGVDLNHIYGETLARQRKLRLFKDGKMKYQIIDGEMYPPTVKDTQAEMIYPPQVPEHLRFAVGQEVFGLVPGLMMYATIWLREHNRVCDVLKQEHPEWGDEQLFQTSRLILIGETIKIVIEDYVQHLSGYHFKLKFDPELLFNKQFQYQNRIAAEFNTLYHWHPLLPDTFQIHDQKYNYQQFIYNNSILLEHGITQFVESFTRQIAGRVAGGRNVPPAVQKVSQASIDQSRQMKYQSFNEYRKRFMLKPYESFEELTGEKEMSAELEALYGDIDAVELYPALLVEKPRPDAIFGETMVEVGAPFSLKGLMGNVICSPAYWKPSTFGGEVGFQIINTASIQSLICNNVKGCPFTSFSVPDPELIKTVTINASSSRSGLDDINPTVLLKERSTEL
The experiment in a line: COX-2 enzyme inhibition study (human recombinant, Sf9 cells, 0.3 microM arachidonic acid, PGE2 determination). It is filed as biochemical. The protocol:
COX-2 enzyme inhibition study was performed using a protocol similar to protocols previously described (see e.g., Riendeau D, et al. in Can. J. Physiol. Pharmacol. (1997) 75:1088-11095; or Warner et al. in Proc. Natl. Acad.Sci. (1999) 96:7563-7568). Typically, the source material was human recombinant Sf9 cells using 0.3 microM arachidonic acid (Vehicle 1% DMSO) at a preincubation time of 15 min at 37 Centigrades and an incubation time of 15 min at 37 Centigrades (Incubation buffer was 100 mM Tris 1 mM Glutathione, 1 microM hematin, and 0.5mM phenol, pH7.7). Quantitative analysis was performed via ETA determination of PGE2.

T1 sequence (P23219 24-599): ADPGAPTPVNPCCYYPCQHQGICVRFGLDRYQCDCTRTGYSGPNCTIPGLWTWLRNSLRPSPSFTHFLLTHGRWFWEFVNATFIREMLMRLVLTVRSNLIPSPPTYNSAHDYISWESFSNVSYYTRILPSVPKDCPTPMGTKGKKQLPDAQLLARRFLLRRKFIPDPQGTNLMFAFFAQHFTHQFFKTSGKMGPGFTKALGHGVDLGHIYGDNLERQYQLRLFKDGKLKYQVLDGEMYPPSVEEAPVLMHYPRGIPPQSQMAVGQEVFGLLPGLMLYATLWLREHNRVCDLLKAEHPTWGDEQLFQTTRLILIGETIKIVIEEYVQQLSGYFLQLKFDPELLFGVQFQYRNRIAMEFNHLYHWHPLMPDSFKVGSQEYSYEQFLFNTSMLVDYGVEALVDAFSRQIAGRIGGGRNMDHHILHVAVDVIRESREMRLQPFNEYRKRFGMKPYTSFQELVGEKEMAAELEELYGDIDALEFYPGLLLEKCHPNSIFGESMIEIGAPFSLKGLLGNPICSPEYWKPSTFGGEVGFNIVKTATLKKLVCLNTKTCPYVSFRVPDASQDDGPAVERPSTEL

On to Calcium Fructoborate, for which the “COX-1 IC50” value on COX-1 turned out to be 222 µg/mL. The entries for the “COX-1 (% Inhib.)” value on COX-1 (concentration 100 μg/ml), on COX-1 (concentration 1000 μg/ml) and at COX-1 (concentration 10 mg/ml) were 29%, 85% and 95%, respectively. Also, the “Selectivity COX-1 to COX-2” value at COX-1 (ratio of IC50 values, COX-1 over COX-2) is “least 45-fold”. Also, on COX-2, the “COX-2 IC50” value is over 10000 µg/mL. For the same substance, the “COX-2 (% Inhib.)” value on COX-2 (concentration 100 μg/ml) is reported as 8%; at COX-2 (concentration 1000 μg/ml), 12%; on COX-2 (concentration 10 mg/ml), 10%.

Turning to Potassium Boroascorbate, the “COX-1 IC50” value at COX-1 is 8570 µg/mL. Further, the “COX-1 (% Inhib.)” value at COX-1 (concentration 100 μg/ml) is reported as −5%; at COX-1 (concentration 1000 μg/ml), −2%; at COX-1 (concentration 10 mg/ml) it was 69%. Also, the “COX-2 IC50” value on COX-2 was under 100 µg/mL. In addition, the figures for the “COX-2 (% Inhib.)” value on COX-2 (concentration 100 μg/ml), at COX-2 (concentration 1000 μg/ml) and at COX-2 (concentration 10 mg/ml) were 77%, 73% and 71%, respectively. Besides, on COX-2 (ratio of IC50 values, COX-2 over COX-1), the “Selectivity COX-2 to COX-1” value was “least 85-fold”.
